Assay results from patent US20240293430A1, “WITHAFERIN A AND IMMUNE CHECKPOINT BLOCKER COMBINATION THERAPIES” (University of South Florida, priority 2023, published 2024).

Experiments:
[1] = tested on: IFN-α mRNA in LLC and H1650 cells; assay: IFN-α qRT-PCR; assay type: cell-based, mouse (LLC), human (H1650)
Description: ROS is the main regulator of WFA-induced PD-L1 upregulation. […] All cells were treated with 0.6 μM WFA except A549, 4t1 and MDA-MB-231 cells which were treated with 4 μM, 1 μM, 2 μM WFA, respectively. […] PCR experiments were repeated twice, and one representative experiment is shown as mean±SEM of 3 technical replicates. Flow cytometry experiments were performed twice and the mean±SEM of two representative experiments is shown. Treatments were compared to the control using one-way ANOVA and Fisher LSD post hoc test. * p<0.05, ** p<0.01, *** p<0.001, **** p<0.0001.
Total cellular RNA was isolated from collected cell pellets using TRIzol reagent (Invitrogen, Waltham, MA, USA) and then quantified using the 2000 Nanodrop spectrophotometer (Thermo Fisher Scientific, Waltham, MA, USA). cDNA synthesis was performed using the Verso cDNA synthesis kit (Thermo Fisher Scientific, Waltham, MA, USA). qPCR was then performed using Forget-Me-Not EvaGreen qPCR Master Mix (Biotium, Fremont, CA, USA) in a Bio-Rad CFX384 thermocycler according to the manufacturer's instructions. The CFX Maestro software version 2.3 (Bio-Rad, Hercules, CA, USA) was used to calculate the ΔCt and ΔΔCt values and gene expression was normalized to housekeeping genes glyceraldehyde 3-phosphate dehydrogenase (GAPDH) or β-actin. […]

[2] = tested on: PD-L1 in NRF-2 knockdown LLC or H1650 cells; assay: NRF-2 siRNA knockdown then WFA, PD-L1 by flow cytometry; assay type: cell-based, mouse (LLC), human (H1650); conditions: WFA 24 h after siRNA, similar to scramble controls
[3] = tested on: tumor-immune infiltration and ecto-CRT in LLC tumors; assay: LLC syngeneic mouse model, flow cytometry of collected tumors; assay type: in vivo, C57BL/6 mice
Description: FIGS. 5A-5G depict that WFA sensitizes flank tumors to α-PD-L1 therapy and targets immunosuppressive MDSCs and T-regs. (FIG. 5A) Establishment of LLC flank tumors and treatment schedule. (FIG. 5B) Tumor volume measurement in mm^3 and tumor weight at the endpoint of the experiment. (FIG. 5C) Change in the levels of ecto-CRT in tumors was measured using flow cytometry. (FIGS. 5D-5G) Flow cytometry was used to determine the change in immune cell infiltration in collected tumors. […] Moreover, WFA reduced the immunosuppressive T regs (FIG. 5F) and CD11b+Gr1+MDSC (FIG. 5G) populations. The means of two independent experiments ±SEM are shown, and the statistical significance was calculated using one-way ANOVA and a Fisher LSD post hoc test where * and #represent p<0.05 and ** and ##represent p<0.01. * Symbols refer to the difference between the vehicle control and WFA, while #refers to comparisons between the vehicle control and WFA+α-PD-L1 combination.
FIGS. 12A-12D depicts the gating strategy used to determine tumor immune infiltration in LLC tumors and spleens. […] Out of the CD11b population, we gated the monocytic CD11b+Ly6C+ and CD11b+Ly6G+granulocytic MDSCs. (FIG. 12B) For the T-cell panel, the total CD-3 population was gated out of the live single cells. Consequently, CD4, CD25+CD4+Tregs and CD8 population were gated out of CD-3 cells based on the FMO controls. (FIGS. 12C-12D) Mice body weights were measured at the endpoint of the experiment and represented as mean±SEM. The means were compared to the vehicle control using Fisher LSD post-hoc test. * p<0.05.
In vitro WFA-treated or control cells were collected using Accutase cell detachment solution and stained with FACS-diluted (PBS, 10% FBS, 2 mMEDTA) pre-titrated fluorophore conjugated or primary unconjugated antibody solutions (Table 1) for 30 min on ice in the dark. In case of fluorophore-conjugated antibodies, samples are washed and immediately acquired after adding DAPI viability dye, while samples stained with unconjugated antibodies are incubated with the proper secondary fluorophore-conjugated antibody for 30 min before washing and acquisition. For in vivo experiments, the processed tumor or spleen single cell suspensions were used for surface staining with the pre-titrated antibodies (Table 1) for 30 min on ice in the dark. To exclude the dead cells from the analysis, a fixable live/dead Zombie Aqua viability kit (Biolegend, San Diego, CA, USA) was used according to the manufacturer's protocol. Samples were then fixed using 2% PFA for 15 min then washed and stored at 4° C. before acquisition. Samples were acquired using a Becton Dickenson Biosciences (BD, Franklin Lakes, NJ, USA) FACS Canto II or LSR II system at the University of South Florida COM Fred Wright Jr Flow Cytometry Core.
C57BL/6 mice were purchased from the Jackson Laboratory (Bar Harbor, ME, USA) and acclimated for a week. To establish the LLC syngeneic tumors, C57BL/6 mice were injected with a half million cells on the right flank and monitored until tumors were first palpable (2-3 mm diameter). […] Treatments were administered every other day with a total of five treatments and mice body weights and tumor volumes were monitored using a caliper (Fisher Scientific, Waltham, MA, USA, 15-077-957). Tumor volumes (mm^3) were calculated using the equation ([…]), where the length is defined as the bigger tumor dimension. […]

## CC1=C(CO)C(=O)O[C@@H]([C@@H](C)[C@H]2CC[C@H]3[C@@H]4C[C@H]5O[C@]56[C@@H](O)C=CC(=O)[C@]6(C)[C@H]4CC[C@]23C)C1 [WFA, Withaferin A]
[1]
  IFN-α mRNA: increased
[2]
  PD-L1 in NRF-2 knockdown cells: still upregulated
[3]
  CD11b+Gr1+ MDSCs in the tumor: reducing
  CD25+CD4+ T-regs in the tumor: reducing
[3]; vs control mice
  levels of ecto-CRT in vivo: increased
[3]; vs vehicle control
  CD8 T-cell infiltration: increasing
  T-cell activation markers CD69 and 41BB: not significant
